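96-well plates; 48 h exposure; 5 concentrations. Endpoints by linear interpolation between flanking doses. Not reached: highest tested concentration assigned. GI50: concentration for 50% inhibition of growth.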 Active and inactive are the calls of the source. Cut-off read from the data, not from the text of the source: active = GI50 up to about 1.1 µM and inactive = higher.
How the values were obtained:
Test in all cases: growth of human tumour cells (NCI), 48 h
A549 = test system: A549
CCRF-CEM = test system: CCRF-CEM
DU-145 = test system: DU-145
EKVX = test system: EKVX
HCC 2998 = test system: HCC 2998
HCT-116 = test system: HCT-116
HL-60 = test system: HL-60
MDA-MB-231 = test system: MDA-MB-231
MDA-MB-435 = test system: MDA-MB-435
NCI-H23 = test system: NCI-H23
NCI-H522 = test system: NCI-H522
OVCAR-4 = test system: OVCAR-4
SF-268 = test system: SF-268
SF-295 = test system: SF-295
SK-MEL-28 = test system: SK-MEL-28
SNB-19 = test system: SNB-19
T47D = test system: T47D
UO-31 = test system: UO-31
Malme-3M = test system: Malme-3M

Measured: GI50

CC1(C)OC[C@@H](/C=C\CCO[Si](c2ccccc2)(c2ccccc2)C(C)(C)C)N1C(=O)c1ccccc1
inactive: A549 3.59 µM | CCRF-CEM 6.21 µM | DU-145 18.8 µM | EKVX 5.75 µM | HCC 2998 7.46 µM | HCT-116 3.41 µM | HL-60 2.51 µM | MDA-MB-231 10.9 µM | MDA-MB-435 13.2 µM | NCI-H23 4.61 µM | NCI-H522 3.61 µM | OVCAR-4 7.76 µM | SF-268 13.9 µM | SF-295 13.1 µM | SK-MEL-28 30.3 µM | SNB-19 17.9 µM | T47D 4.06 µM | UO-31 11.9 µM

COc1ccc(C2CCc3c(cnc4nc(N)nc(N)c34)C2)cc1 (centres undefined)
inactive: A549 6.43 µM | DU-145 37.4 µM | EKVX 73.6 µM | HCC 2998 94.4 µM | HCT-116 1.73 µM | HL-60 6.28 µM | MDA-MB-231 40.5 µM | MDA-MB-435 4.53 µM | Malme-3M 18.9 µM | NCI-H522 13.6 µM | OVCAR-4 > 100 µM | SF-268 12.9 µM | SF-295 7.26 µM | SK-MEL-28 96.4 µM | SNB-19 33.7 µM | T47D 31 µM

O=C(O)Cn1ccc(=O)c2ccc([N+](=O)[O-])cc21
inactive: A549 > 100 µM | CCRF-CEM > 100 µM | DU-145 > 100 µM | HCC 2998 > 100 µM | HCT-116 > 100 µM | HL-60 > 100 µM | MDA-MB-231 28.8 µM | MDA-MB-435 > 100 µM | Malme-3M > 100 µM | NCI-H23 > 100 µM | NCI-H522 > 100 µM | SF-268 > 100 µM | SF-295 > 100 µM | SK-MEL-28 > 100 µM | SNB-19 > 100 µM | T47D > 100 µM | UO-31 > 100 µM

O=C(/C(=C/c1cccs1)c1ccccc1)c1ccccc1
inactive: A549 54.2 µM | CCRF-CEM > 100 µM | DU-145 > 100 µM | EKVX > 100 µM | HCC 2998 > 100 µM | HCT-116 > 100 µM | HL-60 47.4 µM | MDA-MB-231 23.4 µM | MDA-MB-435 > 100 µM | NCI-H23 76.6 µM | NCI-H522 53.7 µM | OVCAR-4 35.2 µM | SF-268 > 100 µM | SF-295 > 100 µM | SK-MEL-28 > 100 µM | SNB-19 30.5 µM | T47D > 100 µM | UO-31 > 100 µM

CN1CC(S(=O)(=O)c2ccccc2)CC(S(=O)(=O)c2ccccc2)C1c1ccccc1 (centres undefined)
inactive: A549 32.7 µM | DU-145 18 µM | EKVX 14.3 µM | HCC 2998 15.9 µM | HCT-116 10.4 µM | HL-60 8.81 µM | MDA-MB-231 15.3 µM | MDA-MB-435 10.9 µM | Malme-3M 13.6 µM | NCI-H522 2.9 µM | OVCAR-4 12 µM | SF-268 16.2 µM | SF-295 29.4 µM | SK-MEL-28 15.9 µM | SNB-19 23.4 µM | T47D 18.2 µM | UO-31 15.3 µM

O=C(C/N=C(\CN(c1ccccc1)c1ccccc1)Oc1c(Cl)cc(Cl)cc1Cl)n1cnc2ccccc21
inactive: A549 > 100 µM | CCRF-CEM 33.8 µM | DU-145 > 100 µM | EKVX 50.7 µM | HCC 2998 71.6 µM | HCT-116 34 µM | HL-60 32.7 µM | MDA-MB-231 74 µM | MDA-MB-435 76.6 µM | Malme-3M 52.6 µM | NCI-H23 > 100 µM | NCI-H522 84.1 µM | OVCAR-4 > 100 µM | SF-268 > 100 µM | SF-295 > 100 µM | SK-MEL-28 > 100 µM | SNB-19 > 100 µM | T47D 33.3 µM

O=C1/C(=C/c2ccc([N+](=O)[O-])cc2)C(=O)N(c2ccccc2)C1c1ccccc1 (centres undefined)
inactive: A549 > 10 µM | CCRF-CEM > 10 µM | DU-145 > 10 µM | EKVX > 10 µM | HCC 2998 > 10 µM | HCT-116 > 10 µM | HL-60 > 10 µM | MDA-MB-231 > 10 µM | MDA-MB-435 > 10 µM | NCI-H23 > 10 µM | NCI-H522 > 10 µM | OVCAR-4 > 10 µM | SF-268 > 10 µM | SF-295 > 10 µM | SK-MEL-28 > 10 µM | SNB-19 > 10 µM | T47D > 10 µM | UO-31 > 10 µM

Cc1nc(N)c(N2CCN(C#N)CC2)c(O)n1
inactive: A549 > 100 µM | CCRF-CEM > 100 µM | DU-145 > 100 µM | EKVX > 100 µM | HCC 2998 > 100 µM | HCT-116 > 100 µM | HL-60 > 10 µM | MDA-MB-231 > 100 µM | MDA-MB-435 > 100 µM | Malme-3M > 100 µM | NCI-H23 > 100 µM | NCI-H522 > 100 µM | SF-268 > 100 µM | SF-295 > 100 µM | SK-MEL-28 > 100 µM | SNB-19 > 100 µM | T47D > 100 µM | UO-31 > 100 µM

Oc1ccccc1/C=N/Nc1nc(N/N=C/c2ccccc2O)nc(N/N=C/c2ccccc2O)n1
inactive: A549 > 100 µM | DU-145 > 100 µM | EKVX > 100 µM | HCC 2998 > 100 µM | HCT-116 42.2 µM | HL-60 > 100 µM | MDA-MB-231 > 100 µM | MDA-MB-435 > 100 µM | Malme-3M > 100 µM | NCI-H23 > 100 µM | NCI-H522 31.6 µM | OVCAR-4 > 100 µM | SF-268 > 100 µM | SF-295 86.1 µM | SK-MEL-28 > 100 µM | SNB-19 > 100 µM | T47D 47.9 µM | UO-31 > 100 µM

OC[C@H]1N[C@H](CO)[C@@H](O)[C@H]1O
inactive: A549 > 100 µM | CCRF-CEM > 100 µM | DU-145 > 100 µM | EKVX > 100 µM | HCC 2998 > 100 µM | HCT-116 > 100 µM | HL-60 > 100 µM | MDA-MB-231 > 100 µM | MDA-MB-435 > 100 µM | Malme-3M > 100 µM | NCI-H23 > 100 µM | NCI-H522 > 100 µM | SF-268 > 100 µM | SF-295 > 100 µM | SK-MEL-28 > 100 µM | SNB-19 > 100 µM | T47D > 100 µM | UO-31 > 100 µM

Cc1nc(Nc2ccccc2Cl)sc1C(=O)CC(=O)C(=O)Nc1c(Cl)cccc1Cl
inactive: A549 24.9 µM | CCRF-CEM 28.4 µM | DU-145 27 µM | EKVX 17.9 µM | HCC 2998 39.5 µM | HCT-116 18.8 µM | HL-60 8.95 µM | MDA-MB-231 13.6 µM | MDA-MB-435 22.9 µM | NCI-H23 50.1 µM | NCI-H522 19.3 µM | OVCAR-4 49.1 µM | SF-268 35.6 µM | SF-295 27.5 µM | SK-MEL-28 26.2 µM | SNB-19 63.8 µM | T47D 22.8 µM | UO-31 23 µM
